ChEMBL document CHEMBL3580576, “Eremophilane Sesquiterpenes and Diphenyl Thioethers from the Soil Fungus Penicillium copticola PSU-RSPG138” (J Nat Prod, 2015)
Converted amounts (≈) assume the structure as drawn. The source made the active and inactive calls. The calls are words filed in the database; no cut-off is given here.

Tests used:
MCF7 = assay: Antiproliferative activity against human MCF7 cells assessed as reduction in cell growth incubated at 37 degC for 3 days by resazurin microplate assay; assay type: functional, cell-based
Plasmodium falciparum = assay: Antimalarial activity against multidrug-resistant Plasmodium falciparum K1 assessed as reduction in parasite growth incubated for 24 hrs by [3H]hypoxanthine incorporation based microculture radioisotope technique based method; assay type: functional, organism-based
[1] = tested on: Mycobacterium tuberculosis; assay: Antimycobacterial activity against GFP expressing Mycobacterium tuberculosis H37Ra assessed as microbial growth inhibition incubated at 37 degC for 7 days by fluorescence based assay; assay type: functional
Vero = assay: Cytotoxicity against African green monkey Vero cells assessed as reduction in cell growth incubated at 37 degC for 4 days by fluorescence based assay; details: Chlorocebus sabaeus, 96 h
KB = assay: Antiproliferative activity against human KB cells assessed as reduction in cell growth incubated at 37 degC for 3 days by resazurin microplate assay; assay type: functional, cell-based
[2] = Homo sapiens, MCF7, 72 h, read-out: IC50
[3] = Homo sapiens, KB, 72 h, read-out: IC50
[4] = Plasmodium falciparum, K1, read-out: IC50

## CC/C(=C(\c1ccccc1)c1ccc(OCCN(C)C)cc1)c1ccccc1 [TAMOXIFEN]
MCF7; [2]
  IC50: 18.7 µM

## C=C(C)[C@@]12O[C@@H]1[C@@]1(C)C(=C[C@@H]2O)CC[C@@H](O)[C@@H]1C
Plasmodium falciparum
  IC50: Not Active
[1]
  MIC: inactive
Vero
  IC50: 24.1 µM
KB; kb
  IC50: Not Active
MCF7; mcf7
  IC50: Not Active

## Cc1c2ccncc2c(C)c2c1[nH]c1ccccc12 [ELLIPTECINE]
Vero
  IC50: 3.8 µM
KB; [3]
  IC50: 1.98 µM

## COc1cccc2c1C(=O)c1c(O)c3c(c(O)c1C2=O)C[C@@](O)(C(=O)CO)C[C@@H]3O[C@H]1C[C@H](N)[C@H](O)[C@H](C)O1 [DOXORUBICIN]
KB; [3]
  IC50: 0.91 µM
MCF7; [2]
  IC50: 11.5 µM

## C=C(CO)[C@@]12O[C@@H]1[C@@]1(C)C(=CC2=O)CC[C@@H](O)[C@@H]1C
Plasmodium falciparum; [4]
  IC50: 5.41 µM
[1]
  MIC: inactive
Vero
  IC50: 6.05 µM
KB; [3]
  IC50: 31.8 µM
MCF7; mcf7
  IC50: Not Active

## C=C(C)[C@@]12O[C@@H]1[C@@]1(C)C(=CC2=O)CC[C@@H](O)[C@@H]1C
Plasmodium falciparum; [4]
  IC50: 1.53 µM
[1]
  MIC: inactive
Vero
  IC50: 4.23 µM
KB; [3]
  IC50: 17.8 µM
MCF7; mcf7
  IC50: Not Active

## NNC(=O)c1ccncc1 [ISONIAZID]
[1]; 168 h
  MIC: 0.094 µg/mL (≈ 0.685 µM)

## C=C(C)[C@@H]1C[C@@]2(C)C(=CC1=O)CC[C@@H](O)[C@@H]2C
Plasmodium falciparum; [4]
  IC50: 39.3 µM
[1]
  MIC: inactive
Vero
  IC50: 44.5 µM
KB; [3]
  IC50: 186 µM
MCF7; mcf7
  IC50: Not Active

## CC1COc2c(N3CCN(C)CC3)c(F)cc3c(=O)c(C(=O)O)cn1c23 (stereo unspecified) [OFLOXACIN]
[1]; 168 h
  MIC: 0.391 µg/mL (≈ 1.08 µM)

## CO[C@H]1/C=C/O[C@@]2(C)Oc3c(C)c(O)c4c(O)c(c(/C=N/N5CCN(C)CC5)c(O)c4c3C2=O)NC(=O)/C(C)=C\C=C\[C@H](C)[C@H](O)[C@@H](C)[C@@H](O)[C@@H](C)[C@H](OC(C)=O)[C@@H]1C [RIFAMPIN]
[1]; 168 h
  MIC: 0.025 µg/mL (≈ 0.0304 µM)

## C=C(CO)[C@@H]1C[C@@]2(C)C(=CC1=O)CC[C@@H](O)[C@@H]2C
Plasmodium falciparum
  IC50: Not Active
[1]
  MIC: inactive
Vero
  IC50: 56.2 µM
KB; kb
  IC50: Not Active
MCF7; mcf7
  IC50: Not Active

## C=C(C)[C@@]12O[C@@H]1[C@@]1(C)C(=CC2=O)CC[C@@H](OC(=O)Cc2ccc(O)c(Cl)c2)[C@@H]1C
Plasmodium falciparum; [4]
  IC50: 3.45 µM
[1]; 168 h
  MIC: 50 µg/mL (≈ 120 µM)
Vero
  IC50: 21.1 µM
KB; [3]
  IC50: 57 µM
MCF7; [2]
  IC50: 39.6 µM

## C[C@H]1[C@@H](O)O[C@@H]2O[C@@]3(C)CC[C@H]4[C@H](C)CC[C@@H]1[C@@]24OO3 [ARTENIMOL]
Plasmodium falciparum; [4]
  IC50: 0.00126 µM

## C=C(C)C1=C[C@@]2(C)C(=CC1=O)CC[C@@H](O)[C@@H]2C
Plasmodium falciparum; [4]
  IC50: 15.7 µM
[1]
  MIC: inactive
Vero
  IC50: 34.6 µM
KB; kb
  IC50: Not Active
MCF7; mcf7
  IC50: Not Active

## CC[C@@H](CO)NCCN[C@@H](CC)CO [ETHAMBUTOL]
[1]; 168 h
  MIC: 0.983 µg/mL (≈ 4.81 µM)

## C=C(C)[C@@]12O[C@@H]1[C@@]1(C)C(=CC2=O)CC[C@@H](OC(C)=O)[C@@H]1C
Plasmodium falciparum; [4]
  IC50: 4.55 µM
[1]
  MIC: inactive
Vero
  IC50: 7.51 µM
KB; [3]
  IC50: 35.7 µM
MCF7; mcf7
  IC50: Not Active

## CN[C@@H]1[C@H](O[C@H]2[C@H](O[C@H]3[C@H](O)[C@@H](O)[C@H](N=C(N)N)[C@@H](O)[C@@H]3N=C(N)N)O[C@@H](C)[C@]2(O)C=O)O[C@@H](CO)[C@H](O)[C@H]1O [STREPTOMYCIN]
[1]; 168 h
  MIC: 0.625 µg/mL (≈ 1.07 µM)
